The subject of the assay is Demodex folliculorum. Description: In vitro killing of live Demodex on epilated eyelashes, observed by light microscopy over 90 minutes. The settings on record: for Kill Rate: 90 min observation; for Average Time to Death: value 90 denotes no effect. The source says: In Vitro Activity of Tapinarof Based Formulations in Killing Demodex folliculorum The purpose of this study is to evaluate the effectiveness of a composition comprising Tapinarof in killing Demodex for clinical treatment. […] Following informed consent, one to four lashes with significant cylindrical dandruff were selected for epilation. Lashes were firmly grasped near the base and gently teased out with a slow circular motion to prevent cylindrical dandruff and Demodex from being left behind on the lid margin. Epilated lashes were then placed onto a glass slide and the number of live organisms under light microscopy was then recorded. Lashes with live Demodex were then included in the study. Each lash obtained was then assigned to one of 13 study reagents (Table 1). […] Observation of the study material with the Demodex took place over 90 minutes with checks under light microscopy every five minutes for cessation of Demodex activity. Organism death was recorded when all rotary movement of Demodex appendages ceased. At least five lashes with live Demodex were evaluated for each reagent. Results were recorded in Microsoft Excel and statistical analysis for significant differences in average time to death were done with two-tailed t-test using the same software (Table 1). The value 90 was used to denote no effect.

[1] abbreviates: reagent at 50%, checks every 5 min.
The mark [2] stands for this setting: reagent at 80%, checks every 5 min.
Setting [3] is: tapinarof 0.1% in 50% isopropyl alcohol.
[4] abbreviates: tapinarof 0.5% in 50% isopropyl alcohol.
Setting [5] is: tapinarof 1% in 50% isopropyl alcohol.

For `CC(C)=O` [Acetone], the “Kill Rate” value is, setting by setting: under setting [1], 33%; under setting [2], 29%. In addition, the “Average Time to Death” value is, setting by setting: (reagent at 50%) 82.5 min; (reagent at 80%) 9.7 min.
For `CC#N` [Acetonitrile], in that order: 88%, 100%, 31.43 min and 5.83 min.
Consider `CCO` [Ethanol], for which the “Kill Rate” value under setting [1] is reported as 100%. Besides, the “Average Time to Death” value (reagent at 50%) is 33.64 min.
Taken in the same sequence, the figures for `CC(C)O` [Isopropyl alcohol] were 0% and greater than 90 min.
Turning to `CC(C)c1c(O)cc(/C=C/c2ccccc2)cc1O` [Tapinarof, 3,5-dihydroxy-4-isopropyl-trans-stilbene], the “Kill Rate” value under setting [3] came out at 8%, the “Kill Rate” value under setting [4] is 29% and the “Kill Rate” value under setting [5] was found to be 33%. Further, the “Average Time to Death” value under setting [3] was found to be 80 min, the “Average Time to Death” value under setting [4] worked out at 10.82 min and the “Average Time to Death” value under setting [5] was determined as 60 min. In addition, the “in vitro killing effect against Demodex mites (in words)” value is given as “a significant effect was not observed” (tapinarof at the 0.1% concentration (p=0.34)); “moderate in vitro killing effect” (tapinarof at the 0.5% and 1% concentrations).
On to `CCOCCOCCO` [Transcutol], for which the “Kill Rate” value under setting [1] is given as 100% and the “Kill Rate” value under setting [2] is given as 100%. Moreover, the “Average Time to Death” value was determined as 35 min (reagent at 50%) and 15 min (reagent at 80%).

(Values after patent US20220071924A1, “TREATMENT OF OCULAR DISEASES WITH OPHTHALMIC TAPINAROF COMPOSITIONS” (Sol-Gel Technologies Ltd., priority 2019, published 2022).)
